The source of these data is patent US8993565B2, “(6-oxo-1,6-dihydropyrimidin-2-yl)amide derivatives, preparation thereof and pharmaceutical use thereof as AKT(PKB) phosphorylation inhibitors” (Sanofi, priority 2009, dated 2015).

For orientation: IC50 means the concentration that inhibits the measured activity by half.

The first test relates to AKT protein phosphorylated on serine 473 (P-AKT-S473). The test can be described thus: Study of pAKT expression in PC3 human prostate carcinoma cells measured by the MSD Multi-spot Biomarker Detection technique (Test B). It counts as cell-based. Conditions: PC-3, inhibition of AKT phosphorylation (P-AKT-S473), MSD sandwich immunoassay, 1 to 2 h incubation, absolute IC50, mean of 2 experiments. How it is done: (§1) The inhibitory activity of the molecules on AKT phosphorylation is measured either by western blotting using the technique described below, or by the MSD Multi-spot Biomarker detection technique from Meso Scale Discovery also described below.
Study of pAKT Expression in PC3 Human Prostate Carcinoma Cells Measured by the MSD Multi-Spot Biomarker Detection Technique from Meso Scale Discovery (Test B):
The primary antibody specific for P-AKT-S473 (Kit #K151CAD) is coated on to an electrode in each well of the 96-well plates of the MSD, kit: after the addition of a protein lysate to each well, the signal is visualised by adding a secondary detection antibody labelled with an electrochemoluminescent compound. The procedure followed is that described in the kit.
On day 2, the cells are incubated in the presence or absence of the test products for 1 to 2 h at 37° C. in the presence of 5% of CO2. The molecules, diluted in dimethyl sulphoxide (DMSO Sigma #D2650), are added from a 20-times concentrated stock solution, the final percentage of DMSO being 0.1%. The molecules are tested either at a single concentration of less than or equal to 10 μM, or at increasing concentrations in a range that can extend from less than 1 nM to 10 μM.
After this incubation, the cells are lysed for the preparation of the proteins. […] At this stage, the plates containing the lysates can be stored at −20° C. or at −80° C.
The wells of the 96-well plates of the MSD kit are saturated for 1 h at ambient temperature with the blocking solution of the MSD kit. Four washes are carried out with 150 μl of Tris Wash Buffer of the MSD kit. The lysates previously prepared are transferred into the 96-well multi-spot plates of the MSD kit and incubated for 1 h at ambient temperature, with shaking. Four washes are carried out with 150 μl of Tris Wash Buffer of the MSD kit. 25 μl of the MSD sulfo-tag detection antibody solution are added to the wells and incubated for 1 h at ambient temperature, with shaking. Four washes are carried out with 150 μl of Tris Wash Buffer of the MSD kit. 150 μl of Read Buffer of the MSD kit are added to the wells and the plates are read immediately on the S12400 instrument from Meso Scale Discovery.
The instrument measures a signal for each well. Wells without cells and containing the lysis buffer serve to determine the background noise that will be subtracted from all the measurements (min). The wells containing cells in the absence of product and in the presence of 0.1% DMSO are considered to be the 100% signal (max). The percentage inhibition is calculated for each concentration of test product according to the following formula: (1-((test-min)(max-min)))×100.
2 independent experiments make it possible to calculate the mean of the IC50 values.
Consider `Cn1c(CC(=O)N2CCc3ccccc32)nc(N2CCOCC2)cc1=O` [Example 79, 2-[2-(2,3-dihydro-1 H-indol-1-yl)-2-oxoethyl]-3-methyl-6-(morpholin-4-yl)pyrimidin-4(3 H)-one], for which half-maximal inhibition (IC50) required 20 nM.
`O=C(Cc1nc(N2CCOCC2)cc(=O)[nH]1)N1CCc2c1ccc(F)c2F` [Example 94, 2-[2-(4,5-difluoro-2,3-dihydro-1H-indol-1-yl)-2-oxoethyl]-6-(morpholin-4-yl)pyrimidin-4(3H)-one] had an IC50 of 11 nM.
With `O=C(Cc1nc(N2CCOCC2)cc(=O)[nH]1)N1CCc2ccc(F)cc21` [Example 95, 2-[2-(6-fluoro-2,3-dihydro-′1H-indol-1-yl)-2-oxoethyl]-6-(morpholin-4-yl)pyrimidin-4(3H)-one], the IC50 worked out at 35 nM.
The same measure, in the same setting: to `COC(=O)c1cc(F)ccc1NC(=O)Cc1nc(N2CCOCC2)cc(=O)[nH]1` [Example 144, Methyl 5-fluoro-2-({[4-(morpholin-4-yl)-6-oxo-1,6-dihydropyrimidin-2-yl]acetyl}amino)benzoate] belongs 432 nM; to `Cn1c(CC(=O)Nc2ccc(F)c(C(F)F)c2)nc(N2CCOCC2)cc1=O` [Example 97, N-[3-(difluoromethyl)-4-fluorophenyl]-2-[1-methyl-4-(morpholin-4-yl)-6-oxo-1,6-dihydropyrimidin-2-yl]acetamide], 260 nM.
In turn, `Cn1c(CC(=O)Nc2ccc(F)c(CO)c2)nc(N2CCOCC2)cc1=O` [Example 81, N-[4-fluoro-3-(hydroxymethyl)phenyl]-2-[1-methyl-4-(morpholin-4-yl)-6-oxo-1,6-dihydropyrimidin-2-yl]acetamide] displayed an IC50 of 1940 nM.
In the case of `O=C(Cc1nc(N2CCOCC2)cc(=O)[nH]1)N1CCc2c(F)cc(F)cc21` [Example 92, 2-[2-(4,6-difluoro-2,3-dihydro-1H-indol-1-yl)-2-oxoethyl]-6-(morpholin-4-yl)pyrimidin-4(3H)-one], the IC50 turned out to be 57 nM.
The same measure, in the same setting: for `COC(=O)c1cccc(NC(=O)Cc2nc(N3CCOCC3)cc(=O)[nH]2)c1O` [Example 140, methyl 2-hydroxy-3-(([4-(morpholin-4-yl)-6-oxo-1,6-dihydropyrimidin-2-yl]acetyl)amino)benzoate] the value was 302 nM; for `O=C(Cc1nc(N2CCOCC2)cc(=O)[nH]1)Nc1ccsc1` [Example 7, 2-[4-(morpholin-4-yl)-6-oxo-1,6-dihydropyrimidin-2-yl]-N-(thiophen-3-yl)acetamide], 23 nM.

A further test concerns AKT protein phosphorylated on serine 473 (pAKT-S473). The test can be described thus: Study of pAKT expression in PC3 human prostate carcinoma cells measured by western blotting (Test A). It counts as cell-based. The settings on record: PC-3, inhibition of AKT phosphorylation (pAKT-S473), 1 to 2 hours incubation, absolute IC50, mean of two experiments. How it is done: as §1
Study of pAKT Expression in PC3 Human Prostate Carcinoma Cells Measured by Western Blotting (Test A):
On day 2, the cells are incubated in the presence or absence of the test products for 1 to 2 hours at 37° C. in the presence of 5% CO2. The molecules, diluted in dimethyl sulphoxide (DMSO Sigma #D2650), are added from a 10-times concentrated stock solution, the final percentage of DMSO being 0.1%. The molecules are tested either at a single concentration of less than or equal to 10 μM, or at increasing concentrations in a range that can extend from less than 1 nM to 10 μM.
After this incubation, the cells are lysed for the preparation of the proteins.
The lysate is centrifuged for 10 min at 6000 rpm. 155 μl of supernatant are recovered. 150 μl are incubated for denaturation for 5 min at 95° C. in the presence of 4× NuPAGE LDS Sample Buffer diluted 4-fold (InVitrogen ref NP0007) and of 10× NuPAGE Sample Reducing Agent diluted 10-fold (InVitrogen ref NP0009). These samples are then frozen at −20° C.
The gel is then transferred on to an Invitrolon PVDF membrane (Invitrogen #LC2007) permeabilised beforehand and for a few seconds in ethanol (Ethanol Fischer Scientific #E/0600DF/15).
The transfer is carried out in a Biorad tank at 30 volts overnight or at 60 volts for 3 hours, in the presence of 20× NUPAGE Transfer Buffer diluted 20-fold (InVitrogen ref NP0006).
The membrane is then saturated in saturating solution composed of TBS (10× Tris Buffered Saline, Sigma #T5912, diluted 10-fold), 0.1% Tween (Sigma #P5927) and 3% BSA (Bovine Albumin Serum Fraction V, Sigma #A4503) for 6 h after overnight transfer or else for 1 h after transfer for a period of 3 h.
Two rinses for min in washing solution composed of TBS and 0.1% Tween 20 are carried out before hybridisation of the secondary antibodies.
The secondary antibodies are diluted 110000th for the rabbit anti-Mouse IgG HRP antibody (W402 Promega) and to 110000th for the goat anti-Rabbit IgG HRP antibody (W401 Promega) in saturating solution, and then shaken for 1 h at ambient temperature.
Two rinses for 30 min in washing solution are carried out and then a rinse for 5 min in H2O is carried out in order to eliminate the remaining Tween 20.
The luminescence is read with the FujiFilm device (Ray Test).
The FUJI device measures the total luminescence signal obtained (AU) for each band selected. It then subtracts the background noise (BG) proportional to the size of the band selected (Area), said background noise being calculated from a specific background noise band, with a view to obtaining the specific signal (AU-BG) for each band. The band obtained in the absence of product and in the presence of 0.1% DMSO is considered to be the 100% signal. The software calculates the % specific activity (Ratio) obtained for each band selected as a function of this 100% signal. The percentage inhibition is calculated for each concentration according to the formula (100%−Ratio).
Two independent experiments make it possible to calculate the mean of the percentages of inhibition obtained at a given concentration for the products tested only at one concentration.
Two independent experiments make it possible to calculate the mean of the IC50s.
Background: In western blotting, separated proteins are transferred to a membrane and probed.
The molecule `O=C(Cc1nc(N2CCOCC2)cc(=O)[nH]1)Nc1ccc(F)cc1O` [Example 50, N-(4-fluoro-2-hydroxyphenyl)-2-[4-(morpholin-4-yl)-6-oxo-1,6-dihydropyrimidin-2-yl]acetamide] gave an IC50 of 6720 nM.
On to `O=C(Cc1nc(N2CCOCC2)cc(=O)[nH]1)Nc1cccc(OC(F)(F)F)c1` [Example 43, 2-[4-(morpholin-4-yl)-6-oxo-1,6-dihydropyrimidin-2-yl]-N-[3-(trifluoromethoxy)phenyl]acetamide], for which it took 549 nM to reach half-maximal inhibition (IC50).
In turn, `Cn1c(CC(=O)Nc2ccc(F)cc2)nc(N2CCOCC2)cc1=O` [Example 67, N-(4-fluorophenyl)-2-[1-methyl-4-(morpholin-4-yl)-6-oxo-1,6-dihydropyrimidin-2-yl]acetamide] came in with an IC50 of 2210 nM.
Still for that read-out and setting: for `O=C(Cc1nc(N2CCOCC2)cc(=O)[nH]1)Nc1ccc(F)c(C2CC2)c1` [Example 52, N-(3-cyclopropyle-4-fluorophenyl)-2-[4-(morpholin-4-yl)-6-oxo-1,6-dihydropyrimidin-2-yl]acetamide] the value was 227 nM.
As to `O=C(Cc1nc(N2CCOCC2)cc(=O)[nH]1)Nc1ccc(F)c([N+](=O)[O-])c1` [Example 63, N-(4-fluoro-3-nitrophenyl)-2-[4-(morpholin-4-yl)-6-oxo-1,6-dihydropyrimidin-2-yl]acetamide], the IC50 was found to be 6160 nM.
The same measure, in the same setting: for `COC(=O)c1cccc(NC(=O)Cc2nc(N3CCOCC3)cc(=O)[nH]2)c1` [Example 20, methyl 3-({[4-(morpholin-4-yl)-6-oxo-1,6-dihydropyrimidin-2-yl]acetyl}amino)benzoate] the value was 1310 nM; for `COc1cc(NC(=O)C(C)c2nc(N3CCOCC3)cc(=O)[nH]2)ccc1F` (stereo not shown) [Example 39, N-(4-fluoro-3-methoxyphenyl)-2-[4-(morpholin-4-yl)-6-oxo-1,6-dihydropyrimidin-2-yl]propanamide], 1760 nM.
On the same count and under the same terms, for `O=C(Cc1nc(N2CCOCC2)cc(=O)[nH]1)Nc1cc(F)c(F)c(F)c1` [Example 34, 2-[4-(morpholin-4-yl)-6-oxo-1,6-dihydropyrimidin-2-yl]-N-(3,4,5-trifluorophenyl)acetamide] the value was 609 nM; for `O=C(Cc1nc(N2CCOCC2)cc(=O)[nH]1)Nc1ccc(F)c(C(F)(F)F)c1` [Example 47, N-[4-fluoro-3-(trifluoromethyl)phenyl]-2-[4-(morpholin-4-yl)-6-oxo-1,6-dihydropyrimidin-2-yl]acetamide], 346 nM; for `O=C(Cc1nc(N2CCOCC2)cc(=O)[nH]1)Nc1cccc(C(F)(F)F)c1` [Example 17, 2-[4-(morpholin-4-yl)-6-oxo-1,6-dihydropyrimidin-2-y]-N-[3-(trifluoromethyl)phenyl]acetamide], 1480 nM.
In turn, `COc1cc(F)ccc1NC(=O)Cc1nc(N2CCOCC2)cc(=O)[nH]1` [Example 45, N-(4-fluoro-2-methoxyphenyl)-2-[4-(morpholin-4-yl)-6-oxo-1,6-dihydropyrimidin-2-yl]acetamide] had an IC50 of 261 nM.
Same read-out and setting: for `Cc1cccc(NC(=O)Cc2nc(N3CCOCC3)cc(=O)[nH]2)c1C` [Example 40, N-(2,3-dimethylphenyl)-2-[4-(morpholin-4-yl)-6-oxo-1,6-dihydropyrimidin-2-yl]acetamide] the value was 1490 nM.
With `N#Cc1cccc(NC(=O)Cc2nc(N3CCOCC3)cc(=O)[nH]2)c1` [Example 26, N-(3-cyanophenyl)-2-[4-(morpholin-4-yl)-6-oxo-1,6-dihydropyrimidin-2-yl]acetamide], it took 2290 nM to reach half-maximal inhibition (IC50).
